These are literature values, as cited in patent publication US6335015B1, “Method of the prophylactic treatment of mastitis” (Astacarotene AB, priority 1997, dated 2002).

For series [1] the following is noted: biological tests.
A further series concerns sows. The conditions noted are these: feed supplemented with astaxanthin prior to parturition and during lactation.

For `CC1=C(/C=C/C(C)=C/C=C/C(C)=C/C=C/C=C(C)/C=C/C=C(C)/C=C/C2=C(C)C(=O)[C@@H](O)CC2(C)C)C(C)(C)C[C@H](O)C1=O` [astaxanthin], the “antioxidative properties compared to other carotenoids” value in series [1] is “clearly the best antioxidative properties”. In addition, the piglets born alive result with sows is recorded as “more piglets born alive”.
